Reference: patent US6391303B1, “Methods and compositions for inducing oral tolerance in mammals” (Emisphere Technologies, Inc., priority 1996, dated 2002)

B1: MBP: Myelin Basic Protein, encephalitogenic antigen fed orally alone as comparison in the EAE model (protein, UniProt P02686 1-304, looked up)
Myelin basic protein: MGNHAGKRELNAEKASTNSETNRGESEKKRNLGELSRTTSEDNEVFGEADANQNNGTSSQDTAVTDSKRTADPKNAWQDAHPADPGSRPHLIRLFSRDAPGREDNTFKDRPSESDELQTIQEDSAATSESLDVMASQKRPSQRHGSKYLATASTMDHARHGFLPRHRDTGILDSIGRFFGGDRGAPKRGSGKDSHHPARTAHYGSLPQKSHGRTQDENPVVHFFKNIVTPRTPPPSQGKGRGLSLSRFSWGAEGQRPGFGYGGRASDYKSAHKGFKGVDAQGTLSKIFKLGGRDSRSGSPMARR

Tests used:
[1] = tested on: anti-ovalbumin IgG antibodies; test: ELISA for serum anti-ovalbumin IgG in mice fed ovalbumin with delivery agent and challenged with ovalbumin in CFA; format: in vivo, BALB/c mice; conditions: for serum anti-ovalbumin IgG titer at week 4: single oral dose 25 mg ovalbumin with or without 600 mg/kg delivery agent, SC challenge with ovalbumin/CFA week 1, versus unfed; for serum anti-ovalbumin IgG titer at week 12: two oral doses 1 mg ovalbumin (weeks 0 and 4) with or without 600 mg/kg delivery agent, IM challenge with ovalbumin/CFA week 9
Method: A stock solution was prepared by dissolving Ovalbumin, 10 mg/ml, in 10 mM phosphate buffer (pH 7.4). This solution was diluted with buffer to provide 1.0 mg in a volume of 0.2 ml. Ten BALB/c female mice were administered two oral doses of 1 mg ovalbumin per mouse with 600 mg/kg of E94 delivery agent at weeks 0 and 4.
Systemic challenge was achieved by intramuscular (IM) injection of 2 mg/ml ovalbumin with 50% Complete Freund's Adjuvant (CFA) at week 9. Serum samples were collected at week 12 and assayed for anti-ovalbumin total IgG isotypes as described in Example 4 utilizing ovalbumin antigen instead of HA antigen. Assay data for Example 5 are found in FIG. 5.
A stock solution of ovalbumin was prepared by dissolving Ovalbumin, 125 mg/ml, in 10 mM phosphate buffer (pH 7.4). This solution was used to provide 25 mg in a volume of 0.2 ml. Five BALB/c mice were administered a single oral dose of 25 mg ovalbumin per mouse with 600 mg/kg of E94 delivery agent.
Challenge was achieved by subcutaneous (SC) injection of 0.1 mg ovalbumin with 50% Complete Freund's Adjuvant (CFA) at week 1. Serum samples were collected at week 4 and assayed for anti-ovalbumin total IgG isotypes as described in Example 5. Assay data for Example 6 are found in FIG. 6.

[2] = tested on: anti-SRBC serum IgG antibodies; test: Indirect hemagglutination assay for anti-SRBC serum IgG in mice fed SRBC with delivery agent; format: in vivo, BALB/c mice
Method: Five female BALB/c mice were fed a single dose suspension of 2.5×10^9 sheep red blood cells (SRBC)+E94 (600 mg/Kg) in Phosphate Buffered Saline (PBS), 0.1 M phosphate and 0.15 M sodium chloride, pH 7.2. Seven days after completion of oral dosing, mice were primed by footpad injection of 1×10^7 SRBC. They were bled on day 14. On day 21 the mice were tested in a Delayed Type Hypersensitivity (DTH) test through challenge by injection in the footpad not previously used in priming with 1×10^8 SRBC. Footpad thickness was measured before and 24 hours after challenge using a Vernier caliper. On day 28 they were bled again. […] (See assay description below.) Prior to assaying, the samples were heat inactivated at 56/C. for 60 minutes. Assay data for Example 1 are found in FIG. 2. […]
a) In a 15 ml tube, add 11μ of goat anti-mouse IgG (Fcy specific) (2.3 mg/ml) to 5.05 ml PBS (1/460 dilution; approximate amount needed per plate) In a second tube, add 4μ of goat anti-rabbit IgG (Fc specific) to 1.8 ml of PBS approximate amount needed (per plate) […]

[3] = tested on: Experimental Autoimmune Encephalomyelitis (EAE); conditions: for mean day of onset of paralysis: single oral dose 1.0 mg MBP alone or with delivery agent, day after challenge; for clinical disease (Mean Clinical Score) of EAE: single oral dose 1.0 mg MBP with delivery agent, footpad challenge 0.05 mg MBP/CFA, scale 0 to 5
Method: Two days after the (last) oral dose, all groups were challenged in the footpad with 0.05 mg of MBP emulsified with Complete Freund's Adjuvant containing Mycobacterium tuberculosis H37Ra, 4 mg/ml. Clinical signs of disease were observed starting on Day 11 after the challenge and rated on a scale of 0 (no disease) to 5 (death).

[4] = tested on: anti-SRBC serum IgM antibodies; test: Direct hemagglutination assay for anti-SRBC serum IgM in mice fed SRBC with delivery agent; format: in vivo, BALB/c mice
Method: Five female BALB/c mice were fed a single dose suspension of 2.5×10^9 sheep red blood cells (SRBC)+E94 (600 mg/Kg) in Phosphate Buffered Saline (PBS), 0.1 M phosphate and 0.15 M sodium chloride, pH 7.2. Seven days after completion of oral dosing, mice were primed by footpad injection of 1×10^7 SRBC. They were bled on day 14. On day 21 the mice were tested in a Delayed Type Hypersensitivity (DTH) test through challenge by injection in the footpad not previously used in priming with 1×10^8 SRBC. Footpad thickness was measured before and 24 hours after challenge using a Vernier caliper. On day 28 they were bled again. Sera were placed into Eppendorf tubes and assayed for anti-SRBC IgM (days 14 and 28) and anti-SRBC IgG (day 28) by the direct and indirect hemagglutination assays, respectively. (See assay description below.) Prior to assaying, the samples were heat inactivated at 56/C. for 60 minutes. Assay data for Example 1 are found in FIG. 2. […]
a) Dilute 10μ of sera with 190μ of PBS, pH 7.2 (1/20) b) On a rigid, U-bottom microtiter plate, mark wells across the rows for dilutions of samples 40; 80; 160; . . . […]

[5] = tested on: anti-influenza antibodies (anti-HA); test: Hemagglutination inhibition assay of pooled sera of primed mice fed influenza antigen with delivery agent; conditions: primed s.c. 5 μg vaccine day 0, oral 60 μg influenza antigen + 750 mg/kg delivery agent day 21
Method: Sera were collected every two weeks, pooled, and assayed for hemagglutination inhibition.
Hemagglutination Inhibition Assay for Anti-HA Antibodies:
If duplicates differ by one dilution, take the average. If they differ by more than one dilution, repeat the assay.
14) This titer provides the dilution of virus suspension which contains one HA unit per 50 μl. Divide this titer by 8 to get the dilution which will contain 4 HA units per 0.025 μl for the actual Hemagglutination Inhibition (HI) assay.
RDE* treat all test sera, reference sera and negative control sera on the day before the HI assay will be done.
Use flexible plates. Mark columns for duplicate dilution series of each test and control serum sample (normal naive serum and positive reference anti-serum). The plate should have 11 columns per row for dilutions plus column 12 for RBC alone.
To all wells, except column 1, add 25 μl of PBS.
To column 1 wells, add 50 μl of the appropriate RDE-treatment serum (test, positive, or negative control) sample.
Serially 2× dilute 25 μl of the sera across to column 11, mixing 7× per dilution.
Add 25 μl of diluted virus (containing 4 HA units per 25 μl) to all serum dilution wells, columns 1-11. Add 25 μl of PBS to column 21.
Cover plate, mix briefly on shaker, and incubate at r.t. for 30 minutes.7. […]
Read patterns immediately. […]

DTH response to SRBC = test: Delayed Type Hypersensitivity (DTH) footpad thickness test in mice fed SRBC with delivery agent; format: in vivo, BALB/c mice; conditions: single oral dose 2.5×10^9 SRBC + delivery agent 600 mg/Kg; versus unfed control and SRBC alone
Method: Five female BALB/c mice were fed a single dose suspension of 2.5×10^9 sheep red blood cells (SRBC)+E94 (600 mg/Kg) in Phosphate Buffered Saline (PBS), 0.1 M phosphate and 0.15 M sodium chloride, pH 7.2. Seven days after completion of oral dosing, mice were primed by footpad injection of 1×10^7 SRBC. They were bled on day 14. On day 21 the mice were tested in a Delayed Type Hypersensitivity (DTH) test through challenge by injection in the footpad not previously used in priming with 1×10^8 SRBC. Footpad thickness was measured before and 24 hours after challenge using a Vernier caliper. On day 28 they were bled again. Sera were placed into Eppendorf tubes and assayed for anti-SRBC IgM (days 14 and 28) and anti-SRBC IgG (day 28) by the direct and indirect hemagglutination assays, respectively. (See assay description below.) Prior to assaying, the samples were heat inactivated at 56/C. for 60 minutes. Assay data for Example 1 are found in FIG. 2.
Five female BALB/c mice were fed a single dose suspension of 2.5×10^9 sheep red blood cells (SRBC)+[…] (600 mg/Kg) as described in Example 7. Seven days after completion of oral dosing, mice were primed by footpad injection of 1×10^7 SRBC. On day 14. footpad thickness was measured according to the Delayed Type Hypersensitivity (DTH) method outlined in Example 1. The DTH data for Example 8 are found in FIG. 8. […]

[6] = tested on: DTH response to ovalbumin; test: DTH footpad thickness assay in mice fed ovalbumin with delivery agent; format: in vivo, BALB/c mice; conditions: single oral dose 1.0 mg ovalbumin with or without 600 mg/kg delivery agent; SC challenge ovalbumin/CFA week 3; versus unfed
Method: A stock solution of ovalbumin was prepared by dissolving Ovalbumin, 10 mg/ml in 10 mM phosphate buffer (pH 7.4). This solution was diluted 2-fold and used to provide 1.0 mg in a volume of 0.2 ml. Five BALB/c mice were administered a single oral dose of 1.0 mg ovalbumin per mouse with 600 mg/kg of E702 delivery agent.
Challenge was achieved by subcutaneous (SC) injection of 0.1 mg ovalbumin with 50% Complete Freund's Adjuvant (CFA) at week 3. DTH assay was performed as described in Examples 1 and 8. Assay data for Example 10 are found in FIG. 9.

[7] = single oral dose SRBC + delivery agent 600 mg/Kg, versus unfed control (Comparative Example D)

Molecule | serum anti-ovalbumin IgG titer at week 4 [1] | serum anti-ovalbumin IgG titer at week 12 [1] | mean day of onset of paralysis [3] [days] | clinical disease (Mean Clinical Score) of EAE [3] | DTH response (footpad thickness), Day 14 (DTH response to SRBC) | DTH response (footpad thickness), week 5 [6] | other results
O=C(N[C@@H](Cc1ccccc1)C(=O)O)c1ccccc1O [E94, N-salicyloyl phenylalanine] | significantly suppressed serum anti-Ova IgG titers | significantly suppressed compared to both unfed and antigen-alone fed | 15 | suppression of clinical disease |  |  | anti-SRBC IgG titer, Day 28 [2, 7]: lower than the Comparative Example D control (90% significance); anti-SRBC IgM titer, Day 14 ([4]; single oral dose 2.5×10^9 SRBC + delivery agent 600 mg/Kg, primed day 7, versus unfed control and SRBC alone): suppressed IgM on Day 14 relative to unfed control (Comparative Example D) significantly more than without delivery agent; anti-SRBC IgM titer, Day 28 [4, 7]: still lower than that for the Comparative Example D control (90% significance); suppression of anti-influenza antibody production (HI titer) relative to control fed only influenza antigen [5]: more than 2 fold
O=C(O)CCCc1ccc(NS(=O)(=O)c2ccccc2)cc1 [E198, 4-[4-(N-benzenesulfonyl)]aminophenyl butyric acid] |  |  |  |  | suppressed the DTH response on Day 14 relative to unfed control (Comparative Example L) significantly more than without delivery agent |  | 
COc1ccccc1C(=O)Nc1ccc(CCC(=O)O)cc1 [E594, 3-[4-(N-2 methoxybenzoyl)]aminophenyl propionic acid] |  |  |  |  | suppressed the DTH response on Day 14 relative to unfed control (Comparative Example L) significantly more than without delivery agent |  | anti-SRBC IgG titer, Day 14 ([2]; single oral dose 2.5×10^9 SRBC + delivery agent 600 mg/Kg, versus unfed control and SRBC alone): suppressed IgG on Day 14 relative to unfed control (Comparative Example K) significantly more than without delivery agent
COc1cccc(C(=O)Nc2ccc(CCC(=O)O)cc2)c1OC [E702, 3-[4-(N-2,3-dimethoxybenzoyl)]aminophenyl propionic acid] |  |  | 15 | suppression of clinical disease |  | significantly suppressed response in the DTH | 
Ovalbumin: Ovalbumin antigen fed orally alone, without delivery agent, as comparative example | suppression was not statistically significant | the same as in mice given the intramuscular dose alone |  |  |  | not suppressed | 
B1 |  |  | 13 |  |  |  | 
